Biological target: T1, c-kit (Homo sapiens, UniProt P10721)
T1 construct: human Mo7e cells which endogenously express c-kit; endogenous in cells; host or cells: human Mo7e cells (SCF-dependent promegakaryocytic leukemia line)
Test: Mo7e cell proliferation assay (SCF dependent proliferation)
Format: cell-based
Settings: Table 2; human Mo7e cells stimulated with human recombinant SCF, 48 h, CellTiter Glo; 1% FBS (footnote)
Experimental: Compounds of Formula (I) and Formula (II) provided herein were assayed to measure their capacity to inhibit c-kit and PDGFR kinases using the appropriate assay described below: c-Kit inhibition was evaluated using the Mo7e cell proliferation assay, and PDGFR inhibition was evaluated using the Rat A10 cell proliferation assay and the Human TGHA-VSMC cell proliferation assay.
The compounds of Table 1 and Table 2 were tested for inhibition of SCF dependent proliferation using human Mo7e cells which endogenously express c-kit in a 384 well format. […] After 48 hours of incubation at 37° C., cell viability was measured by adding 25 uL of CellTiter Glo (Promega) to the cells and the luminescence was measured by a CLIPR CCD camera (Molecular Devices).
The IC50 value is given as that concentration of the test compound in question that provoke a response halfway between the baseline and maximum responses.

T1 sequence (P10721 26-976): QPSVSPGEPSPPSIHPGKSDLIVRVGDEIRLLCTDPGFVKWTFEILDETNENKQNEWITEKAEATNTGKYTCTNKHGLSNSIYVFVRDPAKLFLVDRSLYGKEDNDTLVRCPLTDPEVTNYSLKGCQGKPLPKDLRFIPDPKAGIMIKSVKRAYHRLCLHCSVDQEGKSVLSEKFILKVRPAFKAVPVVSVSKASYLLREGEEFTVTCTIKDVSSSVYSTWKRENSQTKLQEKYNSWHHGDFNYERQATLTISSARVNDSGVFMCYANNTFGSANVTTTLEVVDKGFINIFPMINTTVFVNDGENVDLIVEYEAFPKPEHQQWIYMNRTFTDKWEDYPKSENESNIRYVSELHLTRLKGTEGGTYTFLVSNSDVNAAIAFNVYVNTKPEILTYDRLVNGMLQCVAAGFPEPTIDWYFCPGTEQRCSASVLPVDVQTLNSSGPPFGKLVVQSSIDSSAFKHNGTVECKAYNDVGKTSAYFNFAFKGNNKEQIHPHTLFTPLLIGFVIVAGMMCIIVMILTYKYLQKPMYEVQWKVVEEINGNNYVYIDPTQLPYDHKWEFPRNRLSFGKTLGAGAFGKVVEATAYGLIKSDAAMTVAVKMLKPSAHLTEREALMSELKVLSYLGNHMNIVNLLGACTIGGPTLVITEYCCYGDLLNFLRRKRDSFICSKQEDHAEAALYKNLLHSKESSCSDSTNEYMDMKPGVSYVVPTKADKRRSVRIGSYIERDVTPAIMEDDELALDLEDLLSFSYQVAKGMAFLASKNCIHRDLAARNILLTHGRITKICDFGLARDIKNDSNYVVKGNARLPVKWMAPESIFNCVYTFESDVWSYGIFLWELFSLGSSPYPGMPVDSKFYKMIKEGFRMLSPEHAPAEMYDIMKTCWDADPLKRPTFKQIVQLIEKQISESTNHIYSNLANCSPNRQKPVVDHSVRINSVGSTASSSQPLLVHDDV

SMILES	IC50
Cc1ccc(-c2noc([C@H](C)N)n2)cc1NC(=O)c1cnc2ccccn12 [F125]	0.889 µM
Cc1ccc(-c2noc([C@@H](C)NC(=O)OC(C)(C)C)n2)cc1NC(=O)c1cnc2ccccn12 [F126]	0.102 µM
Cc1ccc(-c2noc([C@@H](C)N)n2)cc1NC(=O)c1cnc2ccccn12 [F127]	0.196 µM
COC(=O)NCc1nc(-c2ccc(C)c(NC(=O)c3cnc4ccccn34)c2)no1 [F128]	0.113 µM
Cc1ccc(-c2noc(CNS(C)(=O)=O)n2)cc1NC(=O)c1cnc2ccccn12 [F129]	0.124 µM
COCCNC(=O)OCc1nc(-c2ccc(C)c(NC(=O)c3cnc4ccccn34)c2)no1 [F131]	0.139 µM
COCC(=O)NCc1nc(-c2ccc(C)c(NC(=O)c3cnc4ccccn34)c2)no1 [F132]	0.319 µM
CO[C@@H](C)C(=O)NCc1nc(-c2ccc(C)c(NC(=O)c3cnc4ccccn34)c2)no1 [F133]	0.183 µM
COC(=O)N[C@@H](C)c1nc(-c2ccc(C)c(NC(=O)c3cnc4ccccn34)c2)no1 [F135]	0.166 µM
Cc1ccc(-c2noc([C@H](C)NS(C)(=O)=O)n2)cc1NC(=O)c1cnc2ccccn12 [F136]	0.145 µM
COC(=O)N[C@H](C)c1nc(-c2ccc(C)c(NC(=O)c3cnc4ccccn34)c2)no1 [F137]	0.193 µM
COCCCc1nc(-c2ccc(F)c(NC(=O)c3cnc4ccccn34)c2)no1 [F139]	0.394 µM
CC(=O)N[C@@H](C)c1nc(-c2ccc(C)c(NC(=O)c3cnc4ccccn34)c2)no1 [F140]	1.34 µM
CC(=O)NCc1nc(-c2ccc(C)c(NC(=O)c3cnc4ccccn34)c2)no1 [F141]	0.867 µM
Cc1ccc(-c2noc(C[C@@H](C)NC(=O)OC(C)(C)C)n2)cc1NC(=O)c1cnc2ccccn12 [F142]	0.294 µM
Cc1ccc(-c2noc(C(C)(C)NC(=O)OC(C)(C)C)n2)cc1NC(=O)c1cnc2ccccn12 [F143]	0.201 µM
Cc1ccc(-c2noc(CN(C)S(C)(=O)=O)n2)cc1NC(=O)c1cnc2ccccn12 [F144, N-(2-methyl-5-(5-((N-methylmethylsulfonamido)methyl)-1,2,4-oxadiazol-3-yl)phenyl)imidazo[1,2-a]pyridine-3-carboxamide]	0.156 µM
Cc1ccc(-c2noc(CC(=O)O)n2)cc1NC(=O)c1cnc2ccccn12 [F146]	0.381 µM
Cc1ccc(-c2noc(C(C)(C)NS(C)(=O)=O)n2)cc1NC(=O)c1cnc2ccccn12 [F147]	0.457 µM
COC(=O)NC(C)(C)c1nc(-c2ccc(C)c(NC(=O)c3cnc4ccccn34)c2)no1 [F148]	0.208 µM
Cc1ccc(-c2noc(C[C@@H](C)NS(C)(=O)=O)n2)cc1NC(=O)c1cnc2ccccn12 [F149]	0.22 µM
COC(=O)N[C@H](C)Cc1nc(-c2ccc(C)c(NC(=O)c3cnc4ccccn34)c2)no1 [F150]	0.196 µM
COCCCN(Cc1nc(-c2ccc(C)c(NC(=O)c3cnc4ccccn34)c2)no1)C(=O)C(F)(F)F [F151]	0.134 µM
CC(C)(C)OC(=O)NCc1nc(-c2ccc(F)c(NC(=O)c3cnc4ccccn34)c2)no1 [F152]	0.207 µM

SMILES	IC50
O=C(Nc1cc(-c2noc(CC(O)(C(F)(F)F)C(F)(F)F)n2)ccc1F)c1cnc2ccccn12 [F153]	0.246 µM
Cc1ccc(-c2noc(CNC(=O)CCC(F)(F)F)n2)cc1NC(=O)c1cnc2ccccn12 [F154]	0.182 µM
COCCOCc1nc(-c2cc(NC(=O)c3cnc4ccccn34)c(C)cc2F)no1 [F155]	0.396 µM
Cc1cc(F)c(-c2noc(CNC(=O)OC(C)(C)C)n2)cc1NC(=O)c1cnc2ccccn12 [F156]	0.198 µM
Cc1ccc(-c2noc(CNC(=O)OCCF)n2)cc1NC(=O)c1cnc2ccccn12 [F157]	0.155 µM
COC(=O)NCc1nc(-c2ccc(C)c(NC(=O)c3cnc4cc(C#N)ccn34)c2)no1 [F158]	0.779 µM
COC(=O)NCc1nc(-c2ccc(C)c(NC(=O)c3cnc4cc(F)ccn34)c2)no1 [F159]	0.184 µM
Cc1ccc(-c2noc(C(F)F)n2)cc1NC(=O)c1cnc2ccccn12 [F160]	0.48 µM
Cc1ccc(-c2noc(CF)n2)cc1NC(=O)c1cnc2ccccn12 [F161]	0.173 µM
Cc1ccc(-c2noc(C(O)C(F)(F)F)n2)cc1NC(=O)c1cnc2ccccn12 (stereo not drawn) [F162]	0.266 µM
Cc1ccc(-c2noc(CNC(=O)N(C)C)n2)cc1NC(=O)c1cnc2ccccn12 [F164]	0.965 µM
COCCOC(=O)NCc1nc(-c2ccc(C)c(NC(=O)c3cnc4ccccn34)c2)no1 [F165]	0.512 µM
Cc1ccc(-c2noc(CNC(=O)CCOCC(F)(F)F)n2)cc1NC(=O)c1cnc2ccccn12 [F166]	0.213 µM
COC(=O)NCc1nc(-c2ccc(C)c(NC(=O)c3cnc4cc(C(F)(F)F)ccn34)c2)no1 [F170]	0.462 µM
Cc1ccc(-c2noc(C(CC(F)(F)F)N(C)C)n2)cc1NC(=O)c1cnc2ccccn12 (stereo not drawn) [F171]	0.182 µM
CC(=O)OCc1nc(-c2ccc(C)c(NC(=O)c3cnc4ccccn34)c2)no1 [F172]	0.156 µM
Cc1ccc(Nc2noc(C(C)C)n2)cc1NC(=O)c1cnc2ccccn12 [F174]	0.284 µM
COC(=O)NCc1nc(-c2ccc(C)c(NC(=O)c3cnc4cc(CCC(C)=O)ccn34)c2)no1 [F177]	0.24 µM
COCCOCc1nc(-c2ccc(F)c(NC(=O)c3cnc4ccc(-c5cnn(CC(C)(C)O)c5)cn34)c2)no1 [F182]	0.328 µM
Cc1nc(-c2ccc(C)c(NC(=O)c3cnc4cc(C#N)ccn34)c2)no1 [F187]	0.219 µM
Cc1ccc(-c2noc(C(C)C)n2)cc1NC(=O)c1cnc2ccccn12 [F189]	0.122 µM
COCCOCc1nc(-c2cc(NC(=O)c3cnc4ccccn34)c(C)cc2C)no1 [F190]	0.119 µM
COCc1n[nH]c(-c2ccc3ncc(C(=O)Nc4cc(-c5noc(C)n5)ccc4C)n3c2)n1 [F196]	0.414 µM

Second part, the molecule after the results:

IC50	SMILES
0.112 µM	Cc1ccc(-c2noc(CCC(C)(C)O)n2)cc1NC(=O)c1cnc2ccccn12 [F119]
0.248 µM	CCOC(=O)NCCc1nc(-c2ccc(C)c(NC(=O)c3cnc4ccccn34)c2)no1 [F120]
0.104 µM	Cc1ccc(-c2noc(CCC(C)O)n2)cc1NC(=O)c1cnc2ccccn12 (stereo not drawn) [F121]
0.326 µM	COC(=O)NCCc1nc(-c2ccc(C)c(NC(=O)c3cnc4ccccn34)c2)no1 [F122]
0.305 µM	COCCOC(=O)NCCc1nc(-c2ccc(C)c(NC(=O)c3cnc4ccccn34)c2)no1 [F123]
0.217 µM	Cc1ccc(-c2noc(CO)n2)cc1NC(=O)c1cnc2ccccn12 [F124]
0.142 µM	COCc1nc(-c2ccc(C)c(NC(=O)c3cnc4ccccn34)c2)no1 [F130]
0.173 µM	Cc1ccc(-c2noc(CNC(=O)C(C)(C)O)n2)cc1NC(=O)c1cnc2ccccn12 [F134]
0.233 µM	Cc1ccc(-c2noc(CC(C)(C)O)n2)cc1NC(=O)c1cnc2ccccn12 [F138]
0.219 µM	CCNCc1nc(-c2ccc(C)c(NC(=O)c3cnc4ccccn34)c2)no1 [F145]
0.192 µM	Cc1ccc(-c2noc(COCCO)n2)cc1NC(=O)c1cnc2ccccn12 [F163]
0.166 µM	COC(=O)NCc1nc(-c2ccc(C)c(NC(=O)c3cnc4ccc(F)cn34)c2)no1 [F167, methyl (3-(3-(6-fluoroimidazo[1,2-a]pyridine-3-carboxamido)-4-methylphenyl)-1,2,4-oxadiazol-5-yl)methylcarbamate]
0.22 µM	COC(=O)NCc1nc(-c2ccc(C)c(NC(=O)c3cnc4ccc(C#N)cn34)c2)no1 [F168]
0.142 µM	Cc1ccc(-c2noc(CCC(C)(C)O)n2)cc1NC(=O)c1cnc2cc(F)ccn12 [F169]
0.281 µM	Cc1ccc(-c2noc(C(C)(C)O)n2)cc1NC(=O)c1cnc2ccccn12 [F173]
0.104 µM	Cc1ccc(-c2noc(COCCOCC(F)(F)F)n2)cc1NC(=O)c1cnc2ccc(F)cn12 [F175]

IC50	SMILES
0.226 µM	Cc1nc(-c2ccc(C)c(NC(=O)c3cnc4ccc(-c5csc(N6CCOCC6)n5)cn34)c2)no1 [F176]
0.279 µM	COC(=O)NCc1nc(-c2ccc(C)c(NC(=O)c3cnc4cc(CCC(C)(C)O)ccn34)c2)no1 [F178]
0.139 µM	COCCOCc1nc(-c2ccc(C)c(NC(=O)c3cnc4ccc(F)cn34)c2)no1 [F179]
0.356 µM	CC(=O)CCc1ccc2ncc(C(=O)Nc3cc(-c4noc(C)n4)ccc3C)n2c1 [F180]
0.287 µM	Cc1nc(-c2ccc(C)c(NC(=O)c3cnc4ccc(CCC(C)(C)O)cn34)c2)no1 [F181]
0.394 µM	CC(C)(O)CCc1nc(-c2ccc(F)c(NC(=O)c3cnc4ccc(-c5cnn(CC(C)(C)O)c5)cn34)c2)no1 [F183]
0.158 µM	Cc1ccc(-c2noc(CCC(C)(C)O)n2)cc1NC(=O)c1cnc2ccc(CCN3CCOCC3)cn12 [F184]
0.508 µM	Cc1nc(-c2ccc(C)c(NC(=O)c3cnc4ccc(C#N)cn34)c2)no1 [F185]
0.416 µM	Cc1nc(-c2ccc(C)c(NC(=O)c3cnc4ccc(CCN5CCOCC5C)cn34)c2)no1 (stereo not drawn) [F186]
0.103 µM	COCCOCc1nc(-c2ccc(C)c(NC(=O)c3cnc4ccc(OC)cn34)c2)no1 [F188]
0.272 µM	Cc1ccc(-c2noc(CCC(C)(C)O)n2)cc1NC(=O)c1cnc2cc(N3CCOC3=O)ccn12 [F191]
0.313 µM	Cc1ccc(-c2noc(NCC(C)(C)O)n2)cc1NC(=O)c1cnc2cc(F)ccn12 [F192]
0.166 µM	Cc1ccc2ncc(C(=O)Nc3cc(-c4noc(NCC(C)(C)O)n4)ccc3C)n2c1 [F193]
0.126 µM	Cc1ccc(-c2noc(CCC(C)(C)O)n2)cc1NC(=O)c1cnc2ccc(N3CCOCC3)cn12 [F194]
0.15 µM	Cc1ccc(-c2noc(CCC(C)(C)O)n2)cc1NC(=O)c1cnc2ccc(COCC(F)(F)F)cn12 [F195]

From US20150011508A1, “COMPOUNDS AND COMPOSITIONS AS C-KIT KINASE INHIBITORS” (priority 2011, published 2015)
